Results reported in paper PMC4420714 (Peptides, 2015).
“Also recorded” adds a separate entry of the source. Like-named read-outs stand apart in the source and are kept apart here.

What was measured:
VPAC1-R [1] = target: T1, VPAC1-R (Homo sapiens, UniProt P32241); assay: [3H]cAMP generation in VPAC1-R/PANC-1 cells; assay type: cell-based
T1 sequence (P32241 31-457): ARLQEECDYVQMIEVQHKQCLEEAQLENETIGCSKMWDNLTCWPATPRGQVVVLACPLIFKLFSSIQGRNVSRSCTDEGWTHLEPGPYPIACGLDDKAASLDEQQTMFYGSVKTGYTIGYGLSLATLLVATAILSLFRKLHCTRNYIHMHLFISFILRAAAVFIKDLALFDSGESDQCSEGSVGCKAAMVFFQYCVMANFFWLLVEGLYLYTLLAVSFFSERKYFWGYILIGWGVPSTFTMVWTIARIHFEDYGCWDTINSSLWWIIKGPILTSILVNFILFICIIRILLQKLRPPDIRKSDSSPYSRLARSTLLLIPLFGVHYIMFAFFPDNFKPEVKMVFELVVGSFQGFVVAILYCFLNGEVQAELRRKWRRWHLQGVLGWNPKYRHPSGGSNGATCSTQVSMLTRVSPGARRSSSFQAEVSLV

PAC1-R [2] = target: T2, PAC1-R (Homo sapiens, UniProt P41586); assay: [3H]Inositol phosphate generation; assay type: cell-based; details: PAC1-R cells, IP EC50/cAMP EC50
T2 sequence (P41586 21-468): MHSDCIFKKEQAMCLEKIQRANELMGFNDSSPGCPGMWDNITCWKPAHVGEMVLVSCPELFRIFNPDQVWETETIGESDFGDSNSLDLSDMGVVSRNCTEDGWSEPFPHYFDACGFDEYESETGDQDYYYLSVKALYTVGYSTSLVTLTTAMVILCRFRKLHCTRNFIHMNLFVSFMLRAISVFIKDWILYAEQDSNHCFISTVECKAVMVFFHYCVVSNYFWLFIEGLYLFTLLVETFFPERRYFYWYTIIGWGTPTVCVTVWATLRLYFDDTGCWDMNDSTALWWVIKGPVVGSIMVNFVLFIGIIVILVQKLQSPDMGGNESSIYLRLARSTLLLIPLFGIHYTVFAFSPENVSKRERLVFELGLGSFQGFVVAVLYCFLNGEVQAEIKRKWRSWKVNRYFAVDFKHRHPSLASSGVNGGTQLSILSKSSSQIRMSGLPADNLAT

VPAC2-R [3] = target: T3, VPAC2-R (Homo sapiens, UniProt P41587); assay: [3H]cAMP generation in VPAC2-R/PANC-1 cells; assay type: cell-based
T3 sequence (P41587 24-438): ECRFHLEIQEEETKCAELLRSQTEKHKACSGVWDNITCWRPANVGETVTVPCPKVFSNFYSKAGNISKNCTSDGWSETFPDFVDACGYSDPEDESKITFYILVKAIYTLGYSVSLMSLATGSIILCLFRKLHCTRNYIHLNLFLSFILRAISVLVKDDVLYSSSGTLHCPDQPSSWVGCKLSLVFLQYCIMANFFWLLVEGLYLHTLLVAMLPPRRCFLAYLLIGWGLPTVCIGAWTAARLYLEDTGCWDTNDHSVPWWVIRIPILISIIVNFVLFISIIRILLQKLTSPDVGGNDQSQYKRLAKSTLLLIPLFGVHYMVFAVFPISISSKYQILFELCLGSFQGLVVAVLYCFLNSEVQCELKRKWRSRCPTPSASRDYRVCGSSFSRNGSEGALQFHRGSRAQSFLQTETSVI

PAC1-R [4] = target: T2, PAC1-R; assay: [3H]cAMP generation in PAC1-R cells; assay type: cell-based
VPAC1-R [5] = target: T1, VPAC1-R; assay: Binding of 125I-VIP to VPAC1-R/PANC-1 cells; details: ratio of binding IC50, analog vs native parent peptide
PAC1-R [6] = target: T2, PAC1-R; assay: Binding of 125I-PACAP27 to PAC1-R stably transfected NIH 3T3 cells
VPAC2-R [7] = target: T3, VPAC2-R; assay: Binding of 125I-PACAP27 to VPAC2-R/PANC-1 cells; details: ratio of binding IC50, analog vs native parent peptide
PAC1-R [8] = target: T2, PAC1-R; details: PAC1-R over VPAC1-R; ref [13]; cited from earlier work
VPAC1-R [9] = target: T1, VPAC1-R; assay: [3H]cAMP generation in T47D cells; assay type: cell-based; details: for [3H]cAMP T47D % max (agonist class): relative to PACAP38, up to 1 µM

[3H]cAMP VPAC1-R/PANC-1 % max (agonist class) (VPAC1-R [1]; VPAC1-R/PANC-1 cells, relative to PACAP38, up to 1 µM)	lower affinity for PAC1-R cells than VPAC1-R/PANC-1 cells (PAC1-R [6]; binding IC50 ratio, VPAC1-R preferring)	[3H]cAMP VPAC2-R/PANC-1 % max (agonist class) (VPAC2-R [3]; VPAC2-R/PANC-1 cells, relative to PACAP38, up to 1 µM)	[3H]cAMP T47D % max, agonist activity at 1 µM, still increasing (VPAC1-R [9]; at 1 µM)	Substance	coupling ratio (IC50-binding affinity/EC50-cAMP generation), VPAC1-R/PANC-1 cells (VPAC1-R [1]) [fold]	maximal increase in cAMP, VPAC1-R/PANC-1 cells (VPAC1-R [1]) [fold]	less potent at stimulating [3H]IP (PLC) than cAMP (PAC1-R [2]) [fold]	maximal increase in cAMP, VPAC2-R/PANC-1 cells (VPAC2-R [3]; over control) [fold]	maximal increase in cAMP, PAC1-R cells (PAC1-R [4]) [fold]	decrease in affinity for VPAC1-R/PANC-1 cells compared to native PACAP38 (or PACAP27, VIP) (VPAC1-R [5]) [fold]	decrease in affinity for PAC1-R cells compared to native PACAP38 (or PACAP27) (PAC1-R [6])	lower affinity for PAC1-R cells than VPAC1-R/PANC-1 cells (PAC1-R [6])	lower affinity for PAC1-R cells than VPAC2-R/PANC-1 cells (PAC1-R [6])	decrease in affinity for VPAC2-R/PANC-1 cells compared to native PACAP38 (or PACAP27, VIP) (VPAC2-R [7]) [fold]	PAC1-selectivity reported in a previous study (PAC1-R [8]) [fold]	[3H]cAMP T47D % max of partial agonist (VPAC1-R [9]; partial agonist maximum)	[3H]cAMP T47D % max (agonist class) (VPAC1-R [9])	higher potency for PAC1-R cells compared to VPAC1-R/PANC-1 cells (PAC1-R [4])	higher potency for PAC1-R cells compared to VPAC2-R/PANC-1 cells (PAC1-R [4])	[3H]cAMP PAC1-R % max (agonist class) (PAC1-R [4]; PAC1-R cells, relative to maximal stimulation by PACAP38, up to 1 µM)
				PACAP38 [reference compound]	2.5	5.0 ± 0.7	19	6.5 ± 2.0	4.1 ± 1.5											
				[D-Ser^2]PACAP27 [Peptide P4]						37	15–25 fold	6–10 fold	2–9 fold	7	3	pAg (90) % max	pAg (90)	2-to-5 fold	12–140 fold	
Ag (1 µM, 68)	6–10 fold	Ag (1 µM, 52)	Ag (1 µM, 68) % max	[Pro^3]VIP [Peptide P50]						> 500				> 500			Ag (1 µM, 68)			no agonist activity; also recorded: No Act
